49 compounds from PubChem BioAssay (NCI) can be followed below.

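Assay format: 96-well plates, 48-hour exposure. At the GI50, growth is halved. At the TGI there is no net growth.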

Common to all, as to experiment: NCI tumour cell line growth inhibition, 48 h
For assay [1], the system named is RPMI-8226 leukemia.
Assay [2] deals with SF-295 CNS.
Assay [3] deals with BT-549 breast.
The subject of assay [4] is A549 NSCLC.
Assay [5] concerns UACC-257 melanoma.

Turning to `CCNC(=S)NNC(=O)c1ccccc1Nc1ccccc1C(=O)NNC(=S)NCC`, the TGI in assay [1], in assay [2], in assay [3] and in assay [4] was above 100 µM in each case.

As to `CCSc1nc(N/N=C/c2cccs2)c2cnn(CO)c2n1`, the TGI amounted to 26.4 µM in assay [5], 29.8 µM in assay [2] and 24.1 µM in assay [4].

On to `O=S(=O)(c1ccccc1)c1ccc(-c2nc(-c3ccc4c(c3)Sc3ccccc3S4)cs2)cc1`, for which the TGI in assay [5] is above 100 µM; in assay [1] it was above 100 µM; in assay [2], 47.4 µM; in assay [3] it was 91.7 µM; in assay [4], above 100 µM.

With `CC[C@]12C=CCN3CC[C@@]4(c5cc(Br)c(OC)cc5N(C)[C@H]4[C@@](O)(C(=O)NC(Cc4c[nH]c5ccccc45)C(=O)OC)[C@@H]1O)[C@@H]32` (stereo partly drawn), the TGI in assay [1] was 46.3 µM; in assay [2] it was above 100 µM; in assay [3] it was above 100 µM; in assay [4] it was above 100 µM.

In the case of `C=C(C)CCC1C=[N+]([O-])OC(C)(C)C1(C)C` (stereo not drawn), the TGI in assay [5], in assay [1], in assay [2] and in assay [4] was above 100 µM in each case.

As for `CSc1ccc2c(c1)c(CCN)c(C)n2Cc1ccccc1Cl`, the TGI in assay [5] came to 3.29 µM; in assay [1] it was 3.26 µM; in assay [2] it was 3.26 µM; in assay [3] it was 33.5 µM; in assay [4], 3.18 µM.

On to `CC(=O)NC(C)(C)C1CCC(C)CC1` (stereo not drawn), for which the TGI in assay [5], in assay [1], in assay [2], in assay [3] and in assay [4] was above 100 µM throughout.

Take `O=c1c2c3c(sc2nc2n1NC=NN2)CCCC3`: the TGI in assay [5] was 41.9 µM; in assay [1] it was 50.6 µM; in assay [2], 30.2 µM; in assay [3], 31.8 µM; in assay [4], above 100 µM.

With `CCOC(=O)NN(C(=O)OCC)C(C(=O)c1ccccc1)N(NC(=O)OCC)C(=O)OCC`, the TGI in assay [5], in assay [1], in assay [2], in assay [3] and in assay [4] was above 100 µM each time.

Take `NC1=Nc2ccccc2Sc2cccc(F)c21`: the TGI in assay [5], in assay [1], in assay [2], in assay [3] and in assay [4] was above 100 µM each time.

Regarding `O=c1/c(=C/c2ccccn2)sc2nc3cc4c(cc3n12)OCCO4`, the TGI in assay [5], in assay [1], in assay [2], in assay [3] and in assay [4] was above 100 µM each time.

Consider `Nc1ccn(C2CCC(COP(=O)(O)OCC(O)COP(=O)(O)OCC3OC(n4cc(F)c(=O)[nH]c4=O)CC3O)O2)c(=O)n1` (stereo not drawn), for which the TGI in assay [5], in assay [1], in assay [2], in assay [3] and in assay [4] was above 100 µM throughout.

Take `COc1cc(S(=O)(=O)Nc2ccc(-c3csc(N4C(=O)CSC4c4ccccc4O)n3)cc2)ccc1Cl` (stereo not drawn): the TGI was 97.6 µM in assay [5]; above 100 µM in assay [1]; above 100 µM in assay [2]; above 100 µM in assay [3]; above 100 µM in assay [4].

Take `N#CC1=C(N)N(/N=C/c2ccco2)C(c2ccco2)C1(C#N)C#N` (stereo not drawn): the TGI amounted to 33.2 µM in assay [5]; 44 µM in assay [1]; 79 µM in assay [2]; 34.9 µM in assay [3]; 56.2 µM in assay [4].

For the compound `CSc1nc(NCc2ccccc2)c2cnn(COCCO)c2n1`, the TGI in assay [5] was 64 µM; in assay [1], above 100 µM; in assay [2], above 100 µM; in assay [3], above 100 µM; in assay [4], above 100 µM.

In the case of `CNC(=O)CNC(=O)N(C[C@@H]1CCCN1C(=O)[C@H](CC(C)C)NC(=O)OC(C)(C)C)C(C)C`, the TGI in assay [1], in assay [2], in assay [3] and in assay [4] was above 100 µM in each case.

For the compound `CCOC(=O)c1cc(C)nc2c1c(=O)n(-c1ccccc1)c(=O)n2CCCCN1CCN(c2ncccn2)CC1`, the TGI in assay [5], in assay [1], in assay [2], in assay [3] and in assay [4] was above 100 µM throughout.

Consider `CC(C)(C)OC(=O)N1N=CCC1c1ccccc1` (stereo not drawn), for which the TGI in assay [5], in assay [1], in assay [2] and in assay [4] was above 100 µM in each case.

Regarding `COC(=O)c1c2c(cc3c1CC1(Cc4ccccc4C1)C3)CCC2`, the TGI is 47 µM in assay [5]; 45.8 µM in assay [1]; 61.7 µM in assay [2]; 95.5 µM in assay [3]; above 100 µM in assay [4].

Regarding `CCN(C(=O)N[C@H](C(=O)N[C@@H](CSC)C(=O)N[C@@H](C)C(=O)OC)C(C)C)c1ccccc1`, the TGI was determined as 25 µM in assay [5], 36.7 µM in assay [2], 32.5 µM in assay [3] and 55 µM in assay [4].

`Cc1ccnc(Nc2[nH]c(C(=O)c3ccc(Cl)cc3)c(N)c2C(=S)Nc2ccccc2)c1`: the TGI in assay [5] amounted to 32.7 µM; in assay [1], 31.3 µM; in assay [2] it was 36.8 µM; in assay [3], 30.5 µM; in assay [4], 53 µM.

With `O=c1[nH]cnc2c1cnn2Cc1cnnn1COCCO`, the TGI in assay [5], in assay [2], in assay [3] and in assay [4] was above 100 µM each time.

As for `CC(NNC(=O)c1ccncc1)c1cccc(C(F)(F)F)c1` (stereo not drawn), the TGI in assay [5], in assay [1], in assay [2] and in assay [4] was above 100 µM in each case.

Turning to `O=C1c2cccnc2-c2nccc3c2c1nc1ccccc13`, the TGI in assay [5] stood at 1.06 µM; in assay [1], 1.17 µM; in assay [2], 0.194 µM; in assay [3] it was 0.618 µM; in assay [4], 0.739 µM.

`CC1CN(CCO)CCN1c1ccccc1` (stereo not drawn): the TGI in assay [5], in assay [1], in assay [2], in assay [3] and in assay [4] was above 100 µM each time.

Consider `CC(=O)[C@@]1(c2ccccc2)CC2(CCN(C)CC2)O[C@H]1C`, for which the TGI in assay [5], in assay [1], in assay [2], in assay [3] and in assay [4] was above 100 µM each time.

On to `Fc1ccc(C(OCCN2CCC3CCC(C2)N3C/C=C/c2cccs2)c2ccc(F)cc2)cc1` (stereo not drawn), for which the TGI in assay [5] is 15.1 µM; in assay [1], 1.78 µM; in assay [2] it was 22.4 µM; in assay [3], 25.9 µM; in assay [4] it was 24.3 µM.

For `CC#CCCCC1(C)CCNC1=S` (stereo not drawn), the TGI in assay [5], in assay [2], in assay [3] and in assay [4] was above 10 µM each time.

In the case of `COc1ccc([I+]c2ccc(OC)cc2)cc1`, the TGI in assay [5], in assay [1], in assay [2], in assay [3] and in assay [4] was above 100 µM each time. Besides, the GI50 in assay [1] is 4.16 µM; in assay [2] it was 5.07 µM; in assay [3], 11.1 µM; in assay [4], 5.14 µM.

For the compound `O=C(CC(C(=O)c1cccs1)c1ccsc1)c1ccc(Cl)s1` (stereo not drawn), the TGI in assay [5], in assay [1] and in assay [4] was above 100 µM throughout.

Consider `COC(=O)C12Oc3ccc(-c4ccc5c(c4O)C(O)=C4C(=O)CC(C)C(O)C4(C(=O)OC)O5)c(O)c3C(O)=C1C(=O)CC(C)C2O` (stereo not drawn), for which the TGI in assay [5] is 1.34 µM; in assay [1], 0.31 µM; in assay [2], 1.84 µM; in assay [3], 8.77 µM; in assay [4], above 100 µM.

As to `COc1ccc(Nc2nc(N)c(C(=O)c3ccc(Cl)cc3)s2)cc1`, the TGI is above 100 µM in assay [5]; below 0.01 µM in assay [1]; 15.1 µM in assay [2]; above 73.6 µM in assay [3]; 22.3 µM in assay [4].

As for `COc1ccc(/C=C/C(=O)c2ccc(Br)cc2)cc1`, the TGI in assay [1], in assay [2] and in assay [4] was above 100 µM each time.

For the compound `C=C1CCOC2(C(O)C(C)(O)CO)NC(=O)C1(O)NC2=O` (stereo not drawn), the TGI in assay [5], in assay [1], in assay [2], in assay [3] and in assay [4] was above 100 µM in each case.

On to `O=C(O)c1nn(-c2ccccc2)nc1-c1nn(-c2ccccc2)nc1C(=O)O`, for which the TGI in assay [5], in assay [1], in assay [2] and in assay [4] was above 100 µM in each case.

As for `CCCN(CCC)C(=O)c1c(N2CCN(C)CC2)c2cccnc2n2c(C)cnc12`, the TGI in assay [5], in assay [1], in assay [2] and in assay [4] was above 100 µM each time.

As for `COc1cc2c[n+](C)c3c4cc(OC)c(OCc5ccccc5)cc4c(OCc4ccccc4)cc3c2cc1OC`, the TGI is 14.4 µM in assay [5]; above 86 µM in assay [1]; above 69.3 µM in assay [2]; 9.05 µM in assay [3]; above 88.8 µM in assay [4].

`CSc1ncc2c(n1)-c1ccccc1OC2`: the TGI in assay [5], in assay [1], in assay [2], in assay [3] and in assay [4] was above 100 µM in each case.

Regarding `C(=C/c1nnnn1-c1ccccc1)/Nc1ccccc1`, the TGI in assay [5] is above 100 µM; in assay [1], above 100 µM; in assay [2], 85.3 µM; in assay [3] it was 53.9 µM; in assay [4], above 100 µM.

With `O=C(NC1C/C(=N/O)c2c(Br)sc(Br)c21)C(F)(F)F` (stereo not drawn), the TGI is 72.3 µM in assay [5], above 100 µM in assay [2], above 100 µM in assay [3] and 96.9 µM in assay [4].

On to `CCOS(=O)(=O)c1ccc(-c2c3nc(c(-c4ccc(S(=O)(=O)OCC)cc4)c4ccc([nH]4)c(-c4ccc(S(=O)(=O)OCC)cc4)c4nc(c(-c5ccc(S(=O)(=O)OCC)cc5)c5ccc2[nH]5)C=C4)C=C3)cc1`, for which the TGI in assay [5], in assay [1], in assay [2], in assay [3] and in assay [4] was above 31.6 µM throughout.

With `COc1ccc2[nH]c3c(c2c1)CC(=O)N1CCC[C@H](C1)CC31OCCCO1`, the TGI in assay [5], in assay [1], in assay [2], in assay [3] and in assay [4] was above 100 µM in each case.

With `C=CCOC(=O)Cn1ccc(=O)[nH]c1=O`, the TGI in assay [5], in assay [1], in assay [2] and in assay [4] was above 100 µM in each case.

In the case of `COC(=O)c1ccccc1C1CN=NC12Cc1ccc3c(c1C2=O)CCC3` (stereo not drawn), the TGI in assay [5], in assay [2], in assay [3] and in assay [4] was above 100 µM each time.

`CCCCCCCCCCCCOC1C(COCCN2CCCCC2)OC2OC(C)(C)OC21` (stereo not drawn): the TGI was 3.18 µM in assay [5], 3.15 µM in assay [2], 5.8 µM in assay [3] and 19.9 µM in assay [4].

In the case of `O=C1Nc2ccc(Br)cc2/C1=N/N1C(=O)C(=O)N(C2CCCCC2)C1=S`, the TGI in assay [5] is 34.7 µM; in assay [1], 19.9 µM; in assay [2], 15.4 µM; in assay [4] it was 19.2 µM.

For the compound `O=C1CN(c2cccc(C(F)(F)F)c2)C(=O)CN1CCN1CC(=O)N(c2cccc(C(F)(F)F)c2)CC1=O`, the TGI in assay [5], in assay [1], in assay [2] and in assay [4] was above 100 µM each time.

Take `CCN(CC)CCC1CCCCN1CC(=O)N1c2cc(Cl)ccc2NC(=O)CC1C` (stereo not drawn): the TGI in assay [1], in assay [2] and in assay [4] was above 100 µM throughout.

For the compound `Cc1nc2ccc(NC3OCC(O)C(O)C3O)cc2c(=O)n1-c1ccccc1` (stereo not drawn), the TGI in assay [5], in assay [1], in assay [2] and in assay [3] was above 100 µM each time.
